According to US9271978B2 (Zenith Epigenetics Corp., priority 2012, dated 2016):

Columns and labels:
[1] = target: T1, second bromodomain of Brd2 (BRD2(2)) (Homo sapiens, UniProt P25440); assay: Inhibition of tetra-acetylated histone H4 binding to Brd2 bromodomain 2 (TR-FRET); parameters: key: Active: Compounds with an IC50 value less than 30 μM were deemed to be active.; Not Active: Compounds with an IC50 value less than 30 μM were deemed to be active; settings: tetra-acetylated histone H4 peptide, active = IC50 <30 μM
T1 construct: made in house; host or cells: E. coli BL21 (DE3)
Procedure, shortened: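 IC50 values come from dose-response curves of the 665 nm to 620 nm TR-FRET signal decrease, measured after 2 h at room temperature. Reactions contained 200 nM E. coli-expressed His-tagged bromodomain, 25-50 nM biotinylated tetra-acetylated H4 peptide, Eu-streptavidin plus XL665 anti-His antibody, with 30 mM HEPES pH 7.4, 320 mM KF and 0.2% DMSO.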

[2] = test system: Rat collagen-induced arthritis; assay: In vivo efficacy in rat collagen-induced arthritis; settings: female Lewis rats, dosed Day 11 to Day 17
Method: Rat collagen-induced arthritis is an experimental model of polyarthritis that has been widely used for preclinical testing of numerous anti-arthritic agents. Following administration of collagen, this model establishes a measurable polyarticular inflammation, marked cartilage destruction in association with pannus formation and mild to moderate bone resorption and periosteal bone proliferation. In this model, collagen was administered to female Lewis strain of rats on Day 1 and 7 of study and dosed with compounds from Day 11 to Day 17. Test compounds were evaluated to assess the potential to inhibit the inflammation (including paw swelling), cartilage destruction and bone resorption in arthritic rats, using a model in which the treatment is administered after the disease has been established.

IL-6 and IL-17 cytokines = assay: In vivo efficacy in mouse endotoxemia model; settings: C57/B16 mice, oral 75 mg/kg, inhibition in IL-6 and IL-17 post 4-h LPS challenge 0.5 mg/kg i.p.
Method: Sub lethal doses of Endotoxin (E. Coli bacterial lipopolysaccharide) were administered to animals to produce a generalized inflammatory response which was monitored by increases in secreted cytokines. Compounds were administered to C57/B16 mice orally at 75 mg/kg dose to evaluate inhibition in IL-6 and IL-17 cytokines post 4-h challenge with lipopolysaccharide (LPS) at 0.5 mg/kg dose intraperitoneally.

T1 sequence (P25440 344-453 limits assumed): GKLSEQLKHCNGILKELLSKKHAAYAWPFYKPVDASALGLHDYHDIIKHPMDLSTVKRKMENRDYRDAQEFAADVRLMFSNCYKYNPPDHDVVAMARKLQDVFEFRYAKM

Row | FRET activity (IC50 <30 μM) BRD2(2) [1] | SMILES | In vivo activity [2] | In vivo activity (IL-6 and IL-17 cytokines)
1 | Active | Cc1noc(C)c1-c1cc(N)c(=O)n(Cc2ccccc2)c1 [Example 73, 3-Amino-1-benzyl-5-(3,5-dimethylisoxazol-4-yl)pyridin-2(1H)-one] |  | 
2 | Active | Cc1noc(C)c1-c1ccc(=O)n(Cc2ccc(Cl)cc2)c1 [Example 128, 1-(4-Chlorobenzyl)-5-(3,5-dimethylisoxazol-4-yl)pyridin-2(1H)-one] | Active | Active
3 | Active | Cc1noc(C)c1-c1ccc(=O)n([C@H](C)c2ccccc2)c1 [Example 134, (R)-5-(3,5-Dimethylisoxazol-4-yl)-1-(1-phenylethyl)pyridin-2(1H)-one] |  | 
4 | Active | Cc1noc(C)c1-c1ccc(=O)n(Cc2ccccc2)c1 [Example 56, 1-Benzyl-5-(3,5-dimethylisoxazol-4-yl)pyridin-2(1H)-one] |  | Active
